Test results from the NIST ThermoML archive (doi:10.1021/je400486p).
± gives the expanded uncertainty stated by the source.

Assay: xn = mol fraction of the nth substance listed
Details: 101.3 kPa, Liquid; for viscosity: Concentric cylinders viscometry; for mass density: Vibrating tube method

CN1CCCC1=O [N-methylpyrrolidone] + CCC(C)O
Details | mass density [kg/m3] | viscosity [mPa·s]
288.15 K, x2 = 0 | 1037.3 ± 0.26 | 1.99 ± 0.023
288.15 K, x2 = 0.1049 | 1014.52 ± 0.22 | 1.984 ± 0.023
288.15 K, x2 = 0.2001 | 993.63 ± 0.2 | 1.974 ± 0.023
288.15 K, x2 = 0.3009 | 971.257 ± 0.18 | 1.972 ± 0.023
288.15 K, x2 = 0.4019 | 948.589 ± 0.17 | 2.005 ± 0.023
288.15 K, x2 = 0.5003 | 926.282 ± 0.16 | 2.032 ± 0.024
288.15 K, x2 = 0.5995 | 903.599 ± 0.15 | 2.118 ± 0.025
288.15 K, x2 = 0.7004 | 880.362 ± 0.15 | 2.302 ± 0.027
288.15 K, x2 = 0.7985 | 857.64 ± 0.15 | 2.618 ± 0.031
288.15 K, x2 = 0.899 | 834.259 ± 0.15 | 3.227 ± 0.038
293.15 K, x2 = 0 | 1032.84 ± 0.26 | 1.823 ± 0.021
293.15 K, x2 = 0.1049 | 1010.11 ± 0.22 | 1.815 ± 0.021
293.15 K, x2 = 0.2001 | 989.247 ± 0.2 | 1.801 ± 0.021
293.15 K, x2 = 0.3009 | 966.914 ± 0.18 | 1.798 ± 0.021
293.15 K, x2 = 0.4019 | 944.287 ± 0.17 | 1.817 ± 0.021
293.15 K, x2 = 0.5003 | 922.02 ± 0.16 | 1.839 ± 0.022
293.15 K, x2 = 0.5995 | 899.376 ± 0.16 | 1.905 ± 0.022
293.15 K, x2 = 0.7004 | 876.183 ± 0.15 | 2.048 ± 0.024
293.15 K, x2 = 0.7985 | 853.51 ± 0.15 | 2.29 ± 0.027
293.15 K, x2 = 0.899 | 830.183 ± 0.15 | 2.757 ± 0.033
298.15 K, x2 = 0 | 1028.38 ± 0.25 | 1.679 ± 0.019
298.15 K, x2 = 0.1049 | 1005.69 ± 0.22 | 1.664 ± 0.019
298.15 K, x2 = 0.2001 | 984.854 ± 0.2 | 1.652 ± 0.019
298.15 K, x2 = 0.3009 | 962.556 ± 0.18 | 1.647 ± 0.019
298.15 K, x2 = 0.4019 | 939.97 ± 0.17 | 1.655 ± 0.019
298.15 K, x2 = 0.5003 | 917.742 ± 0.16 | 1.67 ± 0.02
298.15 K, x2 = 0.5995 | 895.133 ± 0.16 | 1.72 ± 0.02
298.15 K, x2 = 0.7004 | 871.975 ± 0.15 | 1.832 ± 0.022
298.15 K, x2 = 0.7985 | 849.341 ± 0.15 | 2.019 ± 0.024
298.15 K, x2 = 0.899 | 826.054 ± 0.15 | 2.368 ± 0.028
303.15 K, x2 = 0 | 1023.92 ± 0.25 | 1.555 ± 0.018
303.15 K, x2 = 0.1049 | 1001.27 ± 0.21 | 1.538 ± 0.018
303.15 K, x2 = 0.2001 | 980.46 ± 0.2 | 1.524 ± 0.018
303.15 K, x2 = 0.3009 | 958.194 ± 0.18 | 1.514 ± 0.018
303.15 K, x2 = 0.4019 | 935.644 ± 0.17 | 1.516 ± 0.018
303.15 K, x2 = 0.5003 | 913.448 ± 0.16 | 1.522 ± 0.018
303.15 K, x2 = 0.5995 | 890.869 ± 0.16 | 1.56 ± 0.019
303.15 K, x2 = 0.7004 | 867.739 ± 0.15 | 1.645 ± 0.02
303.15 K, x2 = 0.7985 | 845.132 ± 0.15 | 1.792 ± 0.022
303.15 K, x2 = 0.899 | 821.864 ± 0.15 | 2.051 ± 0.025
308.15 K, x2 = 0 | 1019.46 ± 0.24 | 1.444 ± 0.017
308.15 K, x2 = 0.1049 | 996.845 ± 0.21 | 1.427 ± 0.017
308.15 K, x2 = 0.2001 | 976.091 ± 0.2 | 1.411 ± 0.017
308.15 K, x2 = 0.3009 | 953.86 ± 0.18 | 1.399 ± 0.017
308.15 K, x2 = 0.4019 | 931.323 ± 0.17 | 1.393 ± 0.017
308.15 K, x2 = 0.5003 | 909.136 ± 0.17 | 1.397 ± 0.017
308.15 K, x2 = 0.5995 | 886.575 ± 0.16 | 1.424 ± 0.017
308.15 K, x2 = 0.7004 | 863.468 ± 0.15 | 1.489 ± 0.018
308.15 K, x2 = 0.7985 | 840.874 ± 0.15 | 1.598 ± 0.019
308.15 K, x2 = 0.899 | 817.592 ± 0.15 | 1.786 ± 0.022
313.15 K, x2 = 0 | 1015 ± 0.24 | 1.346 ± 0.016
313.15 K, x2 = 0.1049 | 992.413 ± 0.21 | 1.327 ± 0.016
313.15 K, x2 = 0.2001 | 971.652 ± 0.2 | 1.311 ± 0.015
313.15 K, x2 = 0.3009 | 949.443 ± 0.18 | 1.297 ± 0.015
313.15 K, x2 = 0.4019 | 926.949 ± 0.17 | 1.285 ± 0.015
313.15 K, x2 = 0.5003 | 904.8 ± 0.17 | 1.285 ± 0.015
313.15 K, x2 = 0.5995 | 882.258 ± 0.16 | 1.303 ± 0.016
313.15 K, x2 = 0.7004 | 859.157 ± 0.15 | 1.351 ± 0.016
313.15 K, x2 = 0.7985 | 836.567 ± 0.15 | 1.431 ± 0.017
313.15 K, x2 = 0.899 | 813.284 ± 0.15 | 1.566 ± 0.019
318.15 K, x2 = 0 | 1010.53 ± 0.24 | 1.259 ± 0.015
318.15 K, x2 = 0.1049 | 987.978 ± 0.21 | 1.239 ± 0.015
318.15 K, x2 = 0.2001 | 967.237 ± 0.2 | 1.221 ± 0.015
318.15 K, x2 = 0.3009 | 945.05 ± 0.19 | 1.206 ± 0.015
318.15 K, x2 = 0.4019 | 922.578 ± 0.17 | 1.19 ± 0.014
318.15 K, x2 = 0.5003 | 900.445 ± 0.17 | 1.186 ± 0.014
318.15 K, x2 = 0.5995 | 877.912 ± 0.16 | 1.197 ± 0.015
318.15 K, x2 = 0.7004 | 854.81 ± 0.16 | 1.23 ± 0.015
318.15 K, x2 = 0.7985 | 832.207 ± 0.15 | 1.286 ± 0.016
318.15 K, x2 = 0.899 | 808.882 ± 0.15 | 1.379 ± 0.017
323.15 K, x2 = 0 | 1006.06 ± 0.23 | 1.182 ± 0.014
323.15 K, x2 = 0.1049 | 983.533 ± 0.21 | 1.161 ± 0.014
323.15 K, x2 = 0.2001 | 962.815 ± 0.2 | 1.141 ± 0.014
323.15 K, x2 = 0.3009 | 940.651 ± 0.19 | 1.124 ± 0.014
323.15 K, x2 = 0.4019 | 918.196 ± 0.18 | 1.104 ± 0.013
323.15 K, x2 = 0.5003 | 896.069 ± 0.17 | 1.098 ± 0.013
323.15 K, x2 = 0.5995 | 873.531 ± 0.16 | 1.103 ± 0.014
323.15 K, x2 = 0.7004 | 850.415 ± 0.16 | 1.124 ± 0.014
323.15 K, x2 = 0.7985 | 827.785 ± 0.15 | 1.162 ± 0.015
323.15 K, x2 = 0.899 | 804.404 ± 0.15 | 1.222 ± 0.015
